Data set [1] concerns hexokinase bound to the mitochondrial fraction of the VX2 tumor. Briefly: Hexokinase activity of the VX2 tumor mitochondrial fraction. To be noted: 5 mM, VX2 tumor mitochondria. The class given is biochemical, rabbit. As to the method: (§1) The freshly isolated liver or VX2 tumor tissues (15-20 g wet weight) was rinsed in 3 volumes of H-medium (210 mM D-mannitol, 70 mM sucrose, 2 mM Hepes, and 0.05% bovine albumin, pH 7.4) at 4° C. and minced with a razor blade as finely as possible. A 30% (V/V) suspension was made using ice-cold H-medium in a Potter-Elvehjem glass homogenizer (55 ml capacity), and homogenization was achieved by applying 4 complete up and down strokes through the suspension with a rotating (˜400 rpm), serrated, teflon pestle attached to a motor. To remove cell debris and nuclei, the resultant homogenate was diluted to twice the initial volume and centrifuged at 630×g for 8 minutes at 4° C. in a Sorvall RC-2B centrifuge using a GSA rotor. The supernatant was removed and then centrifuged at 6,800 g for 15 min under the same conditions. The resultant supernatant was saved and referred to here as the cytosolic faction. The pellet was resuspended in the initial volume of H-medium and centrifuged twice at 9,800×g for 15 min at 4° C. The washed pellet represents the mitochondrial fraction.
The assay coupled the glucose-6-phosphate formed in the hexokinase reaction to the glucose-6-phosphate dehydrogenase reaction. Here, NADP+, oxidizes glucose-6-phosphate to a g-lactone while becoming reduced to NADPH, thus allowing the formation of the latter to be monitored spectrophotometrically at 340 nm. […]

The subject of data set [2] is rabbit VX2 tumor mitochondria. Briefly: Mitochondrial respiration (oxygen consumption). The class given is biochemical. To be noted: 1.2 mM. As to the method:
as §1, with “The pellet was resuspended in the initial volume of H-medium and centrifuged twice at 9,800×g for 15 min at 4° C. The washed pellet represents the mitochondrial fraction.” left out
Oxygen consumption rates were measured polarographically using a Clark oxygen electrode inserted into a 2.5 ml chamber equipped with a magnetic stirrer. […] The loss of oxygen was monitored in a 2.1 ml system at 25° C. containing 1 mg mitochondria, 0.5 mM EDTA, 2.0 mM Hepes, 220 mM D-mannitol, 70 mM sucrose, 2.5 mM KPi, 2.6 mM MgCl2, and 0.5 mg/ml bovine albumin, and, where indicated, 7.8 mM succinate (respiratory substrate), and 0.24 mM ADP (ATP synthesis substrate). […]

For data set [3], the system named is AS-30D hepatoma cells. The data set is described as follows: Hepatoma cell viability by trypan blue. The class given is cell-based, rat. To be noted: 5 mM, 12 h. On the procedure:
AS-30D hepatoma cells grown in the peritoneal cavity of Sprague Dawley female rats (see Materials) were adapted to grow in tissue culture in Dulbecco's modified Eagle's medium containing 10% fetal bovine serum. Cells were maintained at 37° C. in a humidified atmosphere containing 5% CO2, and counted in a Neubauer chamber after trypan blue dye addition (cell/dye volume=1/1) by visualization under a Nikon inverted microscope.
The studies described above using the VX2 tumor model for liver cancer predict that 2DOG and 3BrPA may have the capacity to kill hepatoma cells expressing the high glycolytic/high hexokinase phenotype. […] Cell killing was assessed in these experiments by counting those cells in which trypan blue had entered.

The subject of data set [4] is surrounding liver tissue and major tissues. The data set is described as follows: Histology of surrounding liver and major tissues after intraarterial injection or embolization. As to conditions: rabbit, in vivo. On the procedure: Administration of anesthesia, intravenous access and sodium pentothal anesthesia were carried out as described in Example 12. Transcatheter hepatic artery injection of 3-BrPA was performed under fluoroscopy. The animals were brought to the angiography suite and intubated using a size 3.0 mm endotracheal tube (Mallinkrodt Medical, St. Louis, Mo.) but not ventilated. Surgical cut-down was performed to gain access into the right common femoral artery, after which a 3 French sheath (Cook Inc., Bloomington, Ind.) was placed. A specially manufactured 2 French catheter with a tip in the shape of a hockey-stick (JB1 catheter, Cook Inc., Bloomington, Ind.) was manipulated into the celiac axis after which a celiac arteriogram was performed in order to delineate the blood supply to the liver and confirm the location of the tumor. The tumor could readily be visualized as a region of hypervascular blush located on the left side of the liver near the gastric fundus. […]
Normal tissues and tumors were fixed in 10% formalin, sliced at […] intervals for gross examination, and then embedded completely in paraffin after which […] sections were stained with hemotoxylin and eosin. Tumor viability was estimated by visual inspection and expressed as a percentage of viable tumor area for each slice. The overall percentage of viable tumor in each rabbit was calculated. […]

For data set [5], the system named is liver implanted VX2 tumors. Briefly: Systemic delivery via marginal ear vein, effect on liver implanted VX2 tumors. The data set is classed as in vivo, rabbit. To be noted: 25 ml, 0.5 mM via a marginal ear vein. On the procedure:
(§2) Normal tissues and tumors were fixed in 10% formalin, sliced at […] intervals for gross examination, and then embedded completely in paraffin after which […] sections were stained with hemotoxylin and eosin. Tumor viability was estimated by visual inspection and expressed as a percentage of viable tumor area for each slice. The overall percentage of viable tumor in each rabbit was calculated.
(§3) Finally, it was important to examine the effect of 3-BrPA when delivered systemically (i.e., via the general circulation) on both animal toxicity and its capacity to damage liver implanted tumors.

In data set [6] the test system is "metastatic" lung tumors. Briefly: Systemic delivery via marginal ear vein, effect on metastatic lung tumors. To be noted: 25 ml, 0.5 mM, 4 days. The class given is in vivo, rabbit. On the procedure:
as §2, §3

In data set [7] the test system is rabbits harboring liver implanted VX2 tumors. Briefly: Systemic delivery via marginal ear vein, animal toxicity. The class given is in vivo, rabbit. To be noted: 25 ml, 0.5 mM via a marginal ear vein. On the procedure: as §2, §3

Turning to `O=C(O)C(=O)CBr` [3BrPA, 3-bromopyruvic acid], the “inhibition of the hexokinase reaction” value in data set [1] is listed as “inhibits completely”. Further, the “inhibition of mitochondrial respiration (basal succinate rate and ADP stimulated rate)” value in data set [2] is recorded as “completely inhibits”. The “cells killed (trypan blue uptake)” value in data set [3] is listed as “killing all cells”. For the same molecule, in data set [4], the “damage to 9 major tissues” value was “In no case was there evidence for damage”; the “state of portal veins, sinusoids and bile ducts” value is on record as “remained completely intact”. The “killing effect on liver implanted VX2 tumors” value in data set [5] is “no killing effect”. For the same molecule, in data set [6], the “size of secondary tumors in the lungs” value is listed as “only very small tumors”. Also, the “"metastatic" lung tumors greater than 1 mm in diameter” value in data set [6] (5 in untreated animals) is “almost complete disappearance and none”. Besides, the animal behavior entry in data set [7] is given as “normal behavior”. For the same molecule, the “histological examination of 9 major tissues” value in data set [7] (4 days) was “no obvious damage”.
